Data as given in US20230287217A1, “Zwitterionic Cell-Permeant and Water-Soluble Rhodamine Dyes for Quantitative Imaging Applications” (OREGON HEALTH & SCIENCE UNIVERSITY, priority 2020, published 2023).

Assay: UV-Vis absorption and fluorescence spectroscopy (spectral properties in aqueous media / PBS buffer)
Format: physicochemical
Design: Brightness: unit not given here
Details: aqueous media; for FWHMabs (nm): absorption band width; for λabs (nm): absorption maximum; for FWHem (nm): emission band width; for λem (nm): emission maximum; for ε (M^-1 cm-1): extinction coefficient from Beer's Law plots; for ϕ: relative quantum yield, TMR and SiTMR as reference
Description: UV-Vis and fluorescence spectra were collected on a SpectraMax M5 spectrometer with a Microplate reader (Molecular Devices, Sunnyvale, CA). All absorbance spectra were reference corrected. Extinction coefficient was calculated from Beer’s Law plots of absorbance versus concentration. Relative quantum yields are reported using TMR and SiTMR as reference.

Compound | Brightness | Stokes Shift (nm) | FWHMabs (nm) | λabs (nm) | FWHem (nm) | λem (nm) | ε (M^-1 cm-1) | ϕ
Cc1cc(C(=O)NCCCn2cc(-c3cccc(Nc4ncnc5ccccc45)c3)nn2)ccc1-c1c2cc/c(=[N+](/C)CCCS(=O)(=O)[O-])cc-2oc2cc(N(C)C)ccc12 [OF550Erl(UnT), (E)((6-(dimethylamino)-9-(2-methyl-4-((3-(4-(3-(quinazolin-4-ylamino)phenyl)-1H-1,2,3-triazol-1-yl)propyl)carbamoyl)phenyl)-3H-xanthenylidene)(methyl)ammonio)propane-1-sulfonate] | 35 | 25 nm | 35 nm | 560 nm | 44 nm | 585 nm | 50,200 M^-1 cm-1 | 0.69
CN(C)c1ccc2c(c1)[Si](C)(C)C1=CC(=[N+](C)C)C=CC1=C2c1cc(C(=O)NCCOCCOCCCCCCCl)ccc1C(=O)[O-] [SiRHALO] | 3 | 18 nm | 45 nm | 646 nm | 45 nm | 664 nm | 11,100 M^-1 cm-1 | 0.25
C#Cc1cccc(Nc2ncnc3ccc(NC(=O)CCNC(=O)c4ccc(C(=O)[O-])c(C5=C6C=CC(=[N+](C)C)C=C6[Si](C)(C)c6cc(N(C)C)ccc65)c4)cc23)c1 [SiRErl(T)] | 5 | 22 nm | 42 nm | 656 nm | 53 nm | 678 nm | 34,800 M^-1 cm-1 | 0.13
Cc1cc(C(=O)O)ccc1-c1c2cc/c(=[N+](/C)CCCS(=O)(=O)[O-])cc-2oc2cc(N(C)C)ccc12 [OF550COOH, (E)((9-(4-carboxy-2-methylphenyl)-6-(dimethylamino)-3H-xanthenylidene)(methyl)ammonio)propane-1-sulfonate] | 78 | 24 nm | 33 nm | 554 nm | 42 nm | 578 nm | 112,600 M^-1 cm-1 | 0.69
CN(C)c1ccc2c(c1)[Si](C)(C)C1=CC(=[N+](C)C)C=CC1=C2c1cc(C(=O)O)ccc1C(=O)[O-] [SiRCOOH, 4-carboxy-2-(7-(dimethylamino)-3-(dimethyliminio)-5,5-dimethyl-3,5-dihydrodibenzo[b,e]silin-10-yl)benzoate] | 29 | 22 nm | 39 nm | 645 nm | 42 nm | 667 nm | 64,700 M^-1 cm-1 | 0.45

Further lines, results first:

Brightness | Stokes Shift (nm) | FWHMabs (nm) | λabs (nm) | FWHem (nm) | λem (nm) | ε (M^-1 cm-1) | ϕ | Compound
7 | 26 nm | 44 nm | 559 nm | 43 nm | 585 nm | 18,700 M^-1 cm-1 | 0.37 | CN(C)c1ccc2c(-c3cc(C(=O)NCCCn4cc(-c5cccc(Nc6ncnc7ccccc67)c5)nn4)ccc3C(=O)[O-])c3ccc(=[N+](C)C)cc-3oc2c1 [TMRErl(UnT)]
11 | 24 nm | 58 nm | 553 nm | 45 nm | 577 nm | 27,700 M^-1 cm-1 | 0.41 | CN(C)c1ccc2c(-c3cc(C(=O)NCc4ccc(COc5nc(N)nc6[nH]cnc56)cc4)ccc3C(=O)[O-])c3ccc(=[N+](C)C)cc-3oc2c1 [TMRSNAP]
21 | 24 nm | 39 nm | 563 nm | 42 nm | 587 nm | 33,100 M^-1 cm-1 | 0.62 | C#Cc1cccc(Nc2ncnc3ccc(NC(=O)CCNC(=O)c4ccc(C(=O)[O-])c(-c5c6ccc(=[N+](C)C)cc-6oc6cc(N(C)C)ccc56)c4)cc23)c1 [TMRErl(T)]
